1 compound from patent US8715731B2, “Process of reducing the bitter taste of water soluble actives by co-grinding the active with β cyclodextrin” (ISP Investments Inc., priority 2006, dated 2014) can be followed below.

In brackets after ≈: the same amount, converted by molar mass.

One may read the solubility as how much of the substance goes into solution per volume. A lower solubility goes with little dissolved substance.

A short description of the data set: physchem. The note with it: water. As for the experimental part: The degree of formation of an inclusion complex between the drug and β-cyclodextrin was determined quantitatively by Differential Scanning Calorimetry (DSC).

The compound `NC(N)=Nc1nc(CSCCC(N)=NS(N)(=O)=O)cs1` [famotidine] had a solubility of 1000 µg/mL (≈ 2960 µM).
